In US5532236A, “[1,2,4]triazolo[4,3-a]quinoxaline compounds” (priority 1993, dated 1996):

Legend:
[1] = system: NMDA (N-methyl-D-aspartate) receptors; details: cited from earlier work
kainate receptors = details: cited from earlier work
AMPA receptors = details: cited from earlier work
[2] = system: quisqualic acid stimulated spreading depression in chicken retina; assay: Spreading depression (Test 2): antagonism of quisqualic acid stimulated spreading depression in chicken retina; type: cell-based; details: Gallus gallus, 0.25 h, quisqualate 1 μg/ml, 26° C., 15 min incubation with test compound, read-out: TEST 2 IC50 (50% maximal inhibition of quisqualic acid stimulated spreading depression)
Description: The influence of glutamic acid analogues on secondary effects of glutamate receptor interactions may be studied in vitro by using the phenomenon of spreading depression in chicken retina. Such experiments will provide information as to the efficacies (agonist/antagonist) of the test substances. This is in contrast to binding studies, which only provide information on the affinities of the compounds for the receptor.
The pharmacological properties of the compounds of the present invention can be illustrated by determining their capability for displacing radioactively labelled 2-amino-3-hydroxy-5-methyl-4-isoxazolepropionic acid (AMPA) from the AMPA type receptors. […]
The eyes were initially incubated in normal P.S.S. for 15-30 min. and then transferred to P.S.S. containing quisqualate (1 μg/ml). […] The time taken for an S.D. to start in each eye was measured.
After a further 15 min. of incubation in normal P.S.S. the eyes were transferred to normal P.S.S. containing the test compound and incubated for 15 min. […] The time taken for an S.D. to start in each eye was measured again. The eyes were then placed back in normal P.S.S. and after 15 min. the time taken for S.D. to start was measured again, in order to assess the degree of recovery from any drug effects. […]

AMPA type receptors = assay: 3H-AMPA binding (Test 1); details: rat cerebral cortical membrane homogenate; 5 nM 3H-AMPA; pH 7.1; 0° C., 30 min; read-out: TEST 1 IC50 (displacement of 50% of the specific binding of 3H-AMPA)
Description: AMPA receptor binding may be studied by using ^3 H-AMPA as radioligand.
The pharmacological properties of the compounds of the present invention can be illustrated by determining their capability for displacing radioactively labelled 2-amino-3-hydroxy-5-methyl-4-isoxazolepropionic acid (AMPA) from the AMPA type receptors.
The displacement activity of the compounds may be shown by determining the IC50 value which represents the concentration (μM) which causes a displacement of 50% of the specific binding of ^3 H-AMPA.
^3 H-AMPA binding (Test 1)
500 μl of thawed rat cerebral cortical membrane homogenate in Tris-HCl (30 mM), CaCl2 (2.5 mM) and KSCN (100 mM) pH 7.1 were incubated at 0° C. for 30 min. with 25 μl ^3 H-AMPA (5 nM final concentration) and the test compound and buffer. Nonspecific binding was determined by incubation with L-glutamic acid (600 μM final concentration). The binding reaction was terminated by adding 5 ml of ice-cold buffer followed by filtration through Whatman GF/C glass fibre filters and 2×5 ml wash with ice-cold buffer. Bound radioactivity was measured by scintillation counting. IC50 was determined by Hill analysis of at least four concentrations of test compound.

O=C(O)C1CN(CCCP(=O)(O)O)CCN1 (racemic) [CPP, 3-[(±)-2-carboxy-piperazin-4-yl]-propyl-1-phosphonic acid]
antagonist activity at NMDA receptors [1]: most potent and selective antagonists

O=C(O)[C@@H]1CCCN[C@H]1C(=O)O (relative stereo) [trans-2,3-PDA, trans-2,3-piperidine dicarboxylic acid]
agonist activity on NMDA receptors [1]: strong to moderate agonist activity

N[C@@H](CCC(=O)NCC(=O)O)C(=O)O [3-glutamyl-glycine]
antagonism / selectivity at kainate receptors (kainate receptors; O. Goldberg et al. 1981): some selectivity for kainate receptors

Cc1onc(O)c1CC(N)C(=O)O (stereo not drawn) [AMPA, 2-amino-3-hydroxy-5-methyl-4-isoxazolepropionic acid]
agonist activity at AMPA receptors (AMPA receptors): activated selectively

N[C@H](CCCC(=O)O)C(=O)O [D-2-amino-adipic acid]
antagonist activity at NMDA receptors [1]: moderate antagonist activity

N[C@H](CCCP(=O)(O)O)C(=O)O [D-APV, 2-amino-5-phosphono-valeric acid]
antagonist activity at NMDA receptors [1]: most potent and selective antagonists

N[C@H](CCC(=O)O)C(=O)O [D-glutamic acid]
agonist activity on NMDA receptors [1]: strong to moderate agonist activity

O=c1[nH]c2cc(-n3ccnc3)ccc2n2c(=O)[nH]nc12 [Example 1, 7-(1H-Imidazol-1-yl)[1,2,4]triazolo[4,3-a]quinoxaline-1,4(2H,5H)-dione]
IC50 [2]: 3900 nM | IC50 (AMPA type receptors): 180 nM

O=c1[nH]c2cc(-n3ccnc3)c(C(F)(F)F)cc2n2c(=O)[nH]nc12 [Example 2, 7-(1H-Imidazol-1-yl)-8-trifluoromethyl[1,2,4]triazolo[4,3-a]quinoxaline-1,4(2H,5H)-dione]
IC50 [2]: 4800 nM | IC50 (AMPA type receptors): 1700 nM

CCOC(=O)CC[C@H](N)C(=O)OCC [GDEE, Glutamic acid diethyl ester]
antagonist activity at AMPA receptors (AMPA receptors): selective but very weak antagonist | sensitivity of excitatory responses to kainic acid to antagonism (kainate receptors): relatively insensitive

N[C@H](C(=O)O)c1cc(=O)[nH]o1 [Ibotenic acid]
agonist activity on NMDA receptors [1]: strong to moderate agonist activity

N[C@@H](CCC(=O)O)C(=O)O [L-glutamic acid]
agonist activity at AMPA receptors (AMPA receptors): potent agonists

N[C@@H](CCS(=O)(=O)O)C(=O)O [L-homocysteic acid]
agonist activity on NMDA receptors [1]: strong to moderate agonist activity

N[C@H](CCC[C@H](N)C(=O)O)C(=O)O [diaminopimelic acid]
antagonist activity at NMDA receptors [1]: moderate antagonist activity

N[C@@H](Cn1oc(=O)[nH]c1=O)C(=O)O [quisqualic acid]
agonist activity at AMPA receptors (AMPA receptors): potent agonists
